Data reported in ChEMBL document CHEMBL1201862, “PubChem BioAssay data set” (2004).
One block for each compound: values may come before it. Calls of active or inactive are those of the source.

Tests used:
[1] = molecular target: T1, Corticotropin-releasing factor receptor 2/Corticotropin-releasing factor-binding protein (Homo sapiens, UniProt P24387+Q13324); experiment: Dose Response confirmation of uHTS hits for small molecule antagonists of the CRF-binding protein and CRF-R2 receptor complex.; format: functional; details: read-out: IC50_Mean
T1 sequence (Q13324 whole entry): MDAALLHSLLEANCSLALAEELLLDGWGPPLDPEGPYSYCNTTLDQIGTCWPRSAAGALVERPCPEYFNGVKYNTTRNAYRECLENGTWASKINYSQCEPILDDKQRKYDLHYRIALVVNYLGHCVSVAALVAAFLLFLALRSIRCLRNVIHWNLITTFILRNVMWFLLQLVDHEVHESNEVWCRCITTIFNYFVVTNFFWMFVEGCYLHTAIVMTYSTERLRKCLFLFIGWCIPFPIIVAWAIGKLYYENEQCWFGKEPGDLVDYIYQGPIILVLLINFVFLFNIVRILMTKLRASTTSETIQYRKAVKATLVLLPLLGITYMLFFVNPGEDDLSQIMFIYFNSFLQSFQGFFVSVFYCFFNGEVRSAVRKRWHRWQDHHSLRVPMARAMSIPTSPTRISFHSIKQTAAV
T1 sequence (P24387 whole entry): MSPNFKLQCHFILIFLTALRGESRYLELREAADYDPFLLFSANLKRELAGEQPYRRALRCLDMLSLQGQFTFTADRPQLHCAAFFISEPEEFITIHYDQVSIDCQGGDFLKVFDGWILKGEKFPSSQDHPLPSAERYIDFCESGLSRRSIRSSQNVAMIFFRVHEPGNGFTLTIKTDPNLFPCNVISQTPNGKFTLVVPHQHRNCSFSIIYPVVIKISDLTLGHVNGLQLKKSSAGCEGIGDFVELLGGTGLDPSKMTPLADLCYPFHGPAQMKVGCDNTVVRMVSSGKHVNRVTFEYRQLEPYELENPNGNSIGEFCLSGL

[2] = molecular target: T1, Corticotropin-releasing factor receptor 2/Corticotropin-releasing factor-binding protein; experiment: activators of CRF receptor 2 with binding protein – uHTS hits, confirmation (AID 602473); format: functional; details: read-out: EC50_Mean
[3] = molecular target: FAD-linked sulfhydryl oxidase ALR (Homo sapiens, UniProt P55789); experiment: inhibitors of human ALR sulfhydryl oxidase, dose response, biochemical, H2O2 detection, luminescence, cherry-pick (AID 493248)
Chain of FAD-linked sulfhydryl oxidase ALR (P55789 whole entry): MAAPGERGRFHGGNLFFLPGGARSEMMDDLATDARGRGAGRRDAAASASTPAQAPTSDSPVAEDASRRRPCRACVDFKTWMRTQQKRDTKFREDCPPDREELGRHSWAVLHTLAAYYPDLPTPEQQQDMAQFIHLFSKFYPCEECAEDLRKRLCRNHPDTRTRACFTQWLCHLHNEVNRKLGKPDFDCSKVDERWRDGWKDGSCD

H9c2 = experiment: cells; format: functional, cell-based; details: Rattus norvegicus, H9c2, Myocardium;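 also: confirmatory concentration-response retest of ultra-high-throughput screening hits for modulation of myocardial damage; cell death induced by hydrogen peroxide oxidative stress; compound pretreatment for 60 min then peroxide exposure for 2 h; potency is for protecting the cells against peroxide damage rather than for killing them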
[4] = HEp-2 cell cytotoxicity, dose response, cytotoxicity control for RSV inhibitor project, HTS (AID 2410); format: functional; details: human respiratory syncytial virus
[5] = P. falciparum Dd2 growth inhibitors, dose response, SYBR Green, cherry-picked samples (AID 1159567); format: functional, cell-based
[6] = C. albicans growth with fluconazole, confirmation, fluorescence, retest (AID 2467); format: functional, cell-based
[7] = NIH-3T3 fibroblast cytotoxicity, dose response, cytotoxicity control, cell-based, fluorescence, Alamar Blue, secondary assay (AID 2327); format: functional;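 also: NIH-3T3 mouse fibroblasts cultured with fluconazole at 8 µg/mL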

IC50 [1]: > 47.1 µM (inactive)
EC50 [2]: > 53 µM (inactive)
SMILES: Cc1ccc(-c2ccc(SCC(=O)NCC3CCCO3)nn2)cc1 (centres undefined)

AC50 [3]: 1.83 µM (active)
SMILES: O=C(Nc1cccs1)NC1CCCC1

SMILES: O=C(COc1cccc2c1CCNC2=O)Nc1ccc(Cl)cc1
IC50 (H9c2): 11.6 µM (active)

SMILES: CCOC(=O)c1cccc(NC(=O)CSc2nc3ccccc3c(=O)n2CCOC)c1
IC50 (H9c2): > 79 µM (inactive)

AC50 [3]: 1.41 µM (active)
SMILES: Cc1cc(Nc2ccccc2)n(-c2ccc(C(=O)O)cc2)n1

SMILES: N=C(NNS(=O)(=O)c1ccccc1)c1ccccn1
IC50 (H9c2): 23.5 µM (active)

IC50 [1]: > 47.1 µM (inactive)
EC50 [2]: > 53 µM (inactive)
SMILES: CN1CCN(CC(=O)Nc2cc(N(C)C)nc3ccccc23)CC1

SMILES: CCn1c(SCC(=O)Nc2cccc(C)c2)nc2ccccc2c1=O
CC50 [4]: > 50 µM (active)

SMILES: CCOc1ccc(S(=O)(=O)N(C)CCO)cc1-c1nc(O)c2c(n1)c(C(C)(C)C)nn2C
IC50 (H9c2): > 79 µM (inactive)

SMILES: N#Cc1ccc(NC(=O)CN2C(=O)NC3(CCCCCCC3)C2=O)cc1Cl
CC50 [4]: 30.3 µM (active)

AC50 [3]: 4.82 µM (active)
SMILES: O=C1N=C(NO)S/C1=C\c1ccccc1-n1cccn1

AC50 [3]: 26.2 µM (active)
SMILES: Cc1ccc2[nH]cc(CCNC(=O)c3cccs3)c2c1

SMILES: Cc1cccc(C)c1NC(=O)c1c(C)nn(-c2ccccc2)c1Cl
CC50 [4]: 42.5 µM (active)

SMILES: Cc1onc(-c2ccccc2)c1C(=O)OCC(=O)Nc1ccc(C#N)cc1
CC50 [4]: 8 µM (active)

SMILES: C[C@H](CO)N1C[C@H](C)[C@@H](CN(C)C(=O)[C@H](C)c2ccccc2)OCc2ccccc2-c2c(n(C)c3ccccc23)C1=O
AC50 [5]: 4.07 µM (active)

AC50 [3]: > 100 µM (inactive)
SMILES: CCCCC(NC(=O)Cc1c(C)c2cc3c(C)c(C)oc3c(C)c2oc1=O)C(=O)O (centres undefined)

SMILES: COc1cccc(C(=O)Nc2c(C(N)=O)oc3ccccc23)c1
IC50 (H9c2): > 79 µM (inactive)

SMILES: O=C(C[n+]1ccccc1)N/N=C/c1cccs1
EC50 [6]: > 38 µM (not active)
EC50 [7]: > 150 µM (inactive)

SMILES: FC(F)(F)c1nnc2ccc(N3CCCC3)nn12
IC50 (H9c2): 39.7 µM (inactive)

SMILES: COc1ccc(/N=C/c2cc(Cl)ccc2O)cc1Cl
IC50 (H9c2): 17.5 µM (active)

SMILES: O=C(N(c1ccccc1)c1ccccc1)N(c1ccccc1)c1ccccc1
CC50 [4]: 17 µM (active)

SMILES: O=S(=O)(c1ccc(F)cc1)N1CCC(c2nc(O)c3nnn(Cc4ccc5c(c4)OCCO5)c3n2)CC1
CC50 [4]: 19.6 µM (active)

SMILES: CC(C)(C)[S@+]([O-])N1Cc2cc(C(=O)N[C@H]3CCN(Cc4ccccc4)C3)nc(-c3cccc(-c4ccncc4)c3)c2[C@@H]1CCO
AC50 [5]: 6.19 µM (active)

SMILES: COC(=O)c1cc(C(=O)OCC(=O)N2c3ccccc3NC(=O)C2(C)C)cc([N+](=O)[O-])c1
IC50 (H9c2): 10.8 µM (active)

SMILES: CN(C(=O)CSc1nnc(-c2ccco2)o1)C1CCCCC1
EC50 [6]: 5.16 µM (active)
EC50 [7]: > 160 µM (inactive)
